Data as given in US8680339B2, “Herbicides” (Syngenta Limited, priority 2009, dated 2014).

Experiments:
Type in all cases: in vivo
[1] = test system: Alopecurus myosuroides (ALOMY); experiment: Pre-emergence herbicidal activity, glasshouse pot test; details: Alopecurus myosuroides, 312 h, rate 250 g/ha, evaluated after 13 days, 100=total damage to plant, 0=no damage to plant
Method: (§1) Seeds of a variety of test species were sown in standard soil in pots. After cultivation for one day (pre-emergence) or after 8 days cultivation (post-emergence) under controlled conditions in a glasshouse (at 24/16° C., day/night; 14 hours light; 65% humidity), the plants were sprayed with an aqueous spray solution derived from the formulation of the technical active ingredient in acetone/water (50:50) solution containing 0.5% Tween 20 (polyoxyethelyene sorbitan monolaurate, CAS RN 9005-64-5). The test plants were then grown in a glasshouse under controlled conditions in a glasshouse (at 24/16° C., day/night; 14 hours light; 65% humidity) and watered twice daily. After 13 days for pre and post-emergence, the test was evaluated (100=total damage to plant; 0=no damage to plant). Test Plants: Lolium perenne (LOLPE), Alopecurus myosuroides (ALOMY), Echinochloa crus-galli (ECHCG), and Avena fatua (AVEFA). Pre-Emergence Activity

[2] = test system: Avena fatua (AVEFA); experiment: as above; details: Avena fatua, 312 h, rate 250 g/ha, evaluated after 13 days, 100=total damage to plant, 0=no damage to plant
Method: as §1

[3] = test system: Echinochloa crus-galli (ECHCG); experiment: as above; details: Echinochloa crus-galli, 312 h, rate 250 g/ha, evaluated after 13 days, 100=total damage to plant, 0=no damage to plant
Method: as §1

[4] = test system: Lolium perenne (LOLPE); experiment: as above; details: Lolium perenne, 312 h, rate 250 g/ha, evaluated after 13 days, 100=total damage to plant, 0=no damage to plant
Method: as §1

[5] = test system: Alopecurus myosuroides (ALOMY); experiment: Post-emergence herbicidal activity, glasshouse pot test; details: Alopecurus myosuroides, 312 h, rate 250 g/ha, evaluated after 13 days, 100=total damage to plant, 0=no damage to plant
Method: as §1, with “Post-Emergence” for “Pre-Emergence”

[6] = test system: Avena fatua (AVEFA); experiment: as above; details: Avena fatua, 312 h, rate 250 g/ha, evaluated after 13 days, 100=total damage to plant, 0=no damage to plant
Method: as §1, with “Post-Emergence” for “Pre-Emergence”

[7] = test system: Echinochloa crus-galli (ECHCG); experiment: as above; details: Echinochloa crus-galli, 312 h, rate 250 g/ha, evaluated after 13 days, 100=total damage to plant, 0=no damage to plant
Method: as §1, with “Post-Emergence” for “Pre-Emergence”

[8] = test system: Lolium perenne (LOLPE); experiment: as above; details: Lolium perenne, 312 h, rate 250 g/ha, evaluated after 13 days, 100=total damage to plant, 0=no damage to plant
Method: as §1, with “Post-Emergence” for “Pre-Emergence”

## Cc1cc(Oc2cccc(F)c2F)cc(C)c1C1=C(O)[C@H]2[C@@H](C1=O)[C@@H]1CC[C@H]2O1 [Compound A-8]
[1]
  pest or weed control at 250 g/ha: 40%
[2]
  pest or weed control at 250 g/ha: 0%
[3]
  pest or weed control at 250 g/ha: 40%
[4]
  pest or weed control at 250 g/ha: 30%
[5]
  pest or weed control at 250 g/ha: 80%
[6]
  pest or weed control at 250 g/ha: 40%
[7]
  pest or weed control at 250 g/ha: 90%
[8]
  pest or weed control at 250 g/ha: 80%

## Cc1cc(Oc2ccc(C(F)(F)F)cn2)cc(C)c1C1=C(O)C2C(C1=O)[C@H]1CC[C@@H]2CC1 (stereo partly drawn) [Compound A-19]
[1]
  pest or weed control at 250 g/ha: 0%
[2]
  pest or weed control at 250 g/ha: 0%
[3]
  pest or weed control at 250 g/ha: 10%
[4]
  pest or weed control at 250 g/ha: 0%
[5]
  pest or weed control at 250 g/ha: 10%
[6]
  pest or weed control at 250 g/ha: 10%
[7]
  pest or weed control at 250 g/ha: 60%
[8]
  pest or weed control at 250 g/ha: 0%

## Cc1cc(Oc2ccc(C(F)(F)F)cn2)cc(C)c1C1=C(O)[C@H]2[C@H]3CC[C@H](C3)[C@H]2C1=O [Compound A-17, meso-(3aS,4S,7R,7aR)-2-[2,6-dimethyl-4-(5-trifluoromethylpyridin-2-yloxy)phenyl]-hexahydro-4,7-methanoindene-1,3-dione]
[1]
  pest or weed control at 250 g/ha: 0%
[2]
  pest or weed control at 250 g/ha: 0%
[3]
  pest or weed control at 250 g/ha: 30%
[4]
  pest or weed control at 250 g/ha: 0%
[5]
  pest or weed control at 250 g/ha: 10%
[6]
  pest or weed control at 250 g/ha: 10%
[7]
  pest or weed control at 250 g/ha: 40%
[8]
  pest or weed control at 250 g/ha: 10%

## CCc1cc(Oc2ccc3cc(Cl)ccc3n2)ccc1C1=C(O)[C@H]2[C@@H](C1=O)[C@@H]1CC[C@H]2O1 [Compound A-38]
[1]
  pest or weed control at 250 g/ha: 80%
[2]
  pest or weed control at 250 g/ha: 0%
[3]
  pest or weed control at 250 g/ha: 100%
[4]
  pest or weed control at 250 g/ha: 70%
[5]
  pest or weed control at 250 g/ha: 90%
[6]
  pest or weed control at 250 g/ha: 80%
[7]
  pest or weed control at 250 g/ha: 100%
[8]
  pest or weed control at 250 g/ha: 80%

## CCc1cc(Oc2ccc(Cl)cc2)ccc1C1=C(O)CCC1=O [Compound A-32, 2-[4-(4-chlorophenoxy)-2-ethylphenyl]cyclopentane-1,3-dione]
[1]
  pest or weed control at 250 g/ha: 0%
[2]
  pest or weed control at 250 g/ha: 0%
[3]
  pest or weed control at 250 g/ha: 50%
[4]
  pest or weed control at 250 g/ha: 10%
[5]
  pest or weed control at 250 g/ha: 0%
[6]
  pest or weed control at 250 g/ha: 0%
[7]
  pest or weed control at 250 g/ha: 0%
[8]
  pest or weed control at 250 g/ha: 0%

## Cc1cc(Oc2ccc(Cl)cc2)cc(C)c1C1=C(O)CC(CC2CCOCC2)C1=O (stereo not drawn) [Compound A-34]
[1]
  pest or weed control at 250 g/ha: 80%
[2]
  pest or weed control at 250 g/ha: 30%
[3]
  pest or weed control at 250 g/ha: 70%
[4]
  pest or weed control at 250 g/ha: 70%
[5]
  pest or weed control at 250 g/ha: 80%
[6]
  pest or weed control at 250 g/ha: 60%
[7]
  pest or weed control at 250 g/ha: 80%
[8]
  pest or weed control at 250 g/ha: 70%

## Cc1cc(Oc2cnc3cc(Cl)ccc3n2)cc(C)c1C1=C(O)[C@H]2[C@H]3CC[C@H](C3)[C@H]2C1=O [Compound A-16]
[1]
  pest or weed control at 250 g/ha: 0%
[2]
  pest or weed control at 250 g/ha: 0%
[3]
  pest or weed control at 250 g/ha: 10%
[4]
  pest or weed control at 250 g/ha: 0%
[5]
  pest or weed control at 250 g/ha: 30%
[6]
  pest or weed control at 250 g/ha: 0%
[7]
  pest or weed control at 250 g/ha: 60%
[8]
  pest or weed control at 250 g/ha: 0%

## Cc1cc(Oc2cccc(Cl)c2)cc(C)c1C1=C(O)[C@H]2[C@@H](C1=O)[C@@H]1CC[C@H]2O1 [Compound A-14]
[1]
  pest or weed control at 250 g/ha: 40%
[2]
  pest or weed control at 250 g/ha: 0%
[3]
  pest or weed control at 250 g/ha: 80%
[4]
  pest or weed control at 250 g/ha: 70%
[5]
  pest or weed control at 250 g/ha: 70%
[6]
  pest or weed control at 250 g/ha: 30%
[7]
  pest or weed control at 250 g/ha: 80%
[8]
  pest or weed control at 250 g/ha: 70%

## CCc1cc(Oc2ccc(Cl)cc2)ccc1C1=C(O)[C@H]2[C@@H](C1=O)[C@@H]1CC[C@H]2O1 [Compound A-2]
[1]
  pest or weed control at 250 g/ha: 30%
[2]
  pest or weed control at 250 g/ha: 0%
[3]
  pest or weed control at 250 g/ha: 30%
[4]
  pest or weed control at 250 g/ha: 60%
[5]
  pest or weed control at 250 g/ha: 90%
[6]
  pest or weed control at 250 g/ha: 90%
[7]
  pest or weed control at 250 g/ha: 100%
[8]
  pest or weed control at 250 g/ha: 80%

## Cc1cc(Oc2cnc3cc(Cl)ccc3n2)cc(C)c1C1=C(O)C2C(C1=O)[C@H]1CC[C@@H]2CC1 (stereo partly drawn) [Compound A-21]
[1]
  pest or weed control at 250 g/ha: 10%
[2]
  pest or weed control at 250 g/ha: 0%
[3]
  pest or weed control at 250 g/ha: 50%
[4]
  pest or weed control at 250 g/ha: 30%
[5]
  pest or weed control at 250 g/ha: 10%
[6]
  pest or weed control at 250 g/ha: 0%
[7]
  pest or weed control at 250 g/ha: 70%
[8]
  pest or weed control at 250 g/ha: 0%

## Cc1cc(Oc2ccccc2F)cc(C)c1C1=C(O)[C@H]2[C@@H](C1=O)[C@@H]1CC[C@H]2O1 [Compound A-5]
[1]
  pest or weed control at 250 g/ha: 40%
[2]
  pest or weed control at 250 g/ha: 30%
[3]
  pest or weed control at 250 g/ha: 60%
[4]
  pest or weed control at 250 g/ha: 50%
[5]
  pest or weed control at 250 g/ha: 60%
[6]
  pest or weed control at 250 g/ha: 50%
[7]
  pest or weed control at 250 g/ha: 90%
[8]
  pest or weed control at 250 g/ha: 70%

## Cc1cc(Oc2ncc(Cl)cc2F)cc(C)c1C1=C(O)C2C(C1=O)[C@H]1CC[C@@H]2CC1 (stereo partly drawn) [Compound A-20, 2-[4-(5-chloro-3-fluoropyridin-2-yloxy)-2,6-dimethylphenyl]hexahydro-4,7-ethanoindene-1,3-dione]
[1]
  pest or weed control at 250 g/ha: 40%
[2]
  pest or weed control at 250 g/ha: 0%
[3]
  pest or weed control at 250 g/ha: 60%
[4]
  pest or weed control at 250 g/ha: 20%
[5]
  pest or weed control at 250 g/ha: 50%
[6]
  pest or weed control at 250 g/ha: 20%
[7]
  pest or weed control at 250 g/ha: 70%
[8]
  pest or weed control at 250 g/ha: 30%

## Cc1cc(Oc2ccccc2Cl)cc(C)c1C1=C(O)[C@H]2[C@@H](C1=O)[C@@H]1CC[C@H]2O1 [Compound A-10]
[1]
  pest or weed control at 250 g/ha: 10%
[2]
  pest or weed control at 250 g/ha: 0%
[3]
  pest or weed control at 250 g/ha: 10%
[4]
  pest or weed control at 250 g/ha: 20%
[5]
  pest or weed control at 250 g/ha: 10%
[6]
  pest or weed control at 250 g/ha: 0%
[7]
  pest or weed control at 250 g/ha: 40%
[8]
  pest or weed control at 250 g/ha: 30%

## CCc1cc(Oc2ccc(Br)cc2F)ccc1C1=C(O)[C@H]2[C@@H](C1=O)[C@@H]1CC[C@H]2O1 [Compound A-1]
[1]
  pest or weed control at 250 g/ha: 20%
[2]
  pest or weed control at 250 g/ha: 0%
[3]
  pest or weed control at 250 g/ha: 30%
[4]
  pest or weed control at 250 g/ha: 20%
[5]
  pest or weed control at 250 g/ha: 70%
[6]
  pest or weed control at 250 g/ha: 80%
[7]
  pest or weed control at 250 g/ha: 100%
[8]
  pest or weed control at 250 g/ha: 70%

## Cc1cc(Oc2ccc(Cl)cc2F)cc(C)c1C1=C(O)[C@H]2[C@@H](C1=O)[C@@H]1CC[C@H]2O1 [Compound A-7]
[1]
  pest or weed control at 250 g/ha: 70%
[2]
  pest or weed control at 250 g/ha: 90%
[3]
  pest or weed control at 250 g/ha: 100%
[4]
  pest or weed control at 250 g/ha: 90%
[5]
  pest or weed control at 250 g/ha: 100%
[6]
  pest or weed control at 250 g/ha: 90%
[7]
  pest or weed control at 250 g/ha: 100%
[8]
  pest or weed control at 250 g/ha: 100%

## Cc1cc(Oc2ccc(Br)cc2)cc(C)c1C1=C(O)[C@H]2[C@@H](C1=O)[C@@H]1CC[C@H]2O1 [Compound A-11]
[1]
  pest or weed control at 250 g/ha: 90%
[2]
  pest or weed control at 250 g/ha: 90%
[3]
  pest or weed control at 250 g/ha: 70%
[4]
  pest or weed control at 250 g/ha: 100%
[5]
  pest or weed control at 250 g/ha: 90%
[6]
  pest or weed control at 250 g/ha: 90%
[7]
  pest or weed control at 250 g/ha: 100%
[8]
  pest or weed control at 250 g/ha: 90%

## CCc1cc(Oc2ccc3cc(Cl)ccc3n2)ccc1C1=C(O)CCC1=O [Compound A-35]
[1]
  pest or weed control at 250 g/ha: 0%
[2]
  pest or weed control at 250 g/ha: 0%
[3]
  pest or weed control at 250 g/ha: 70%
[4]
  pest or weed control at 250 g/ha: 0%
[5]
  pest or weed control at 250 g/ha: 0%
[6]
  pest or weed control at 250 g/ha: 0%
[7]
  pest or weed control at 250 g/ha: 80%
[8]
  pest or weed control at 250 g/ha: 20%

## Cc1cc(Oc2ccc(F)cc2)cc(C)c1C1=C(OC(=O)C(C)(C)C)[C@H]2[C@@H](C1=O)[C@@H]1CC[C@H]2O1 [Compound P-4]
[1]
  pest or weed control at 250 g/ha: 80%
[2]
  pest or weed control at 250 g/ha: 70%
[3]
  pest or weed control at 250 g/ha: 100%
[4]
  pest or weed control at 250 g/ha: 90%
[5]
  pest or weed control at 250 g/ha: 90%
[6]
  pest or weed control at 250 g/ha: 60%
[7]
  pest or weed control at 250 g/ha: 90%
[8]
  pest or weed control at 250 g/ha: 70%
